Data on 20 compounds can be found in ChEMBL document CHEMBL3108765, “2-Aminonicotinic acid 1-oxides are chemically stable inhibitors of quinolinic acid synthesis in the mammalian brain: a step toward new antiexcitotoxic agents” (J Med Chem, 2013).

Data set [1] addresses T1, 3-hydroxyanthranilate 3,4-dioxygenase (Rattus norvegicus) (UniProt P46953).
T1 sequence (whole entry): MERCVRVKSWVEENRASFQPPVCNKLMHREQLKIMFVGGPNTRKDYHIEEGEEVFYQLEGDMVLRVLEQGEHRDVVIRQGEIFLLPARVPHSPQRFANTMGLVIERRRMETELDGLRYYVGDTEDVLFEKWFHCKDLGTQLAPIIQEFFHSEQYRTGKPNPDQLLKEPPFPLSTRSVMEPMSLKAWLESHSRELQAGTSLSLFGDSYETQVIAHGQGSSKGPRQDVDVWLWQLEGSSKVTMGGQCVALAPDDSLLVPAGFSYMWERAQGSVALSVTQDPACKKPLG
The data set can be described thus: Inhibition of 3-HAO in Sprague-Dawley rat brain homogenates using [1-14C]-3-HANA as substrate assessed as [14C]-QUIN production at 10 uM after 1 hr by liquid scintillation spectrometric analysis relative to control. In kind it is tissue-based.

The target of data set [2] is T2, 3-hydroxyanthranilate 3,4-dioxygenase (Homo sapiens) (UniProt P46952).
T2 sequence (whole entry): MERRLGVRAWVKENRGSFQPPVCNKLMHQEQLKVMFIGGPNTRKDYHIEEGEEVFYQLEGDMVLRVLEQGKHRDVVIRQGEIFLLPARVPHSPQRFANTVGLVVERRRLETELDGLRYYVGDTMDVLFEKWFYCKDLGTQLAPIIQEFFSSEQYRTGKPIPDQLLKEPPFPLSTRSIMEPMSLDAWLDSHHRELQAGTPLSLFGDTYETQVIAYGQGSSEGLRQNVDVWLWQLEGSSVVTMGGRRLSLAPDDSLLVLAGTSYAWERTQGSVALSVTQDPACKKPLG
Nature of the data set: Inhibition of 3-HAO in human brain homogenates using [1-14C]-3-HANA as substrate assessed as [14C]-QUIN production at 1 mM after 1 hr by liquid scintillation spectrometric analysis relative to control. It is filed as tissue-based.

In data set [3] the target is T2, 3-hydroxyanthranilate 3,4-dioxygenase (Homo sapiens). Nature of the data set: Inhibition of 3-HAO in human brain homogenates using [1-14C]-3-HANA as substrate assessed as [14C]-QUIN production at 100 uM after 1 hr by liquid scintillation spectrometric analysis relative to control. In kind it is tissue-based.
The target is the same in data set [4]. The data set can be described thus: Inhibition of 3-HAO in human brain homogenates using [1-14C]-3-HANA as substrate assessed as [14C]-QUIN production at 10 uM after 1 hr by liquid scintillation spectrometric analysis relative to control. It is filed as tissue-based.
The target in data set [5] is T1, 3-hydroxyanthranilate 3,4-dioxygenase (Rattus norvegicus). Nature of the data set: Inhibition of 3-HAO in Sprague-Dawley rat brain homogenates using [1-14C]-3-HANA as substrate assessed as [14C]-QUIN production at 1 mM after 1 hr by liquid scintillation spectrometric analysis relative to control. In kind it is tissue-based.
The target is the same in data set [6]. Nature of the data set: Inhibition of 3-HAO in Sprague-Dawley rat brain homogenates using [1-14C]-3-HANA as substrate assessed as [14C]-QUIN production at 100 uM after 1 hr by liquid scintillation spectrometric analysis relative to control. In kind it is tissue-based.
Data set [7] can be described thus: Drug degradation in PBS buffer assessed as parent compound level at 100 uM after 24 hrs by HPLC/UV-vis spectroscopic analysis. In kind it is physicochemical. The settings on record: read-out: Stability.
Data set [8] is described as follows: Drug degradation in PBS buffer assessed as parent compound level at 10 uM after 24 hrs by HPLC/UV-vis spectroscopic analysis. The note with it: read-out: Stability. In kind it is physicochemical.
For another data set, the system named is Rattus norvegicus. The data set can be described thus: In vivo inhibition of 3-HAO in excitotoxically lesioned Sprague-Dawley rat striatum assessed as de novo formation of [3H]-QUIN administered as intrastriatally measured after 2 hrs (reference value: 3.4 +/- 0.5%). In kind it is functional.
Data set [9] addresses T3, 3-hydroxyanthranilate 3,4-dioxygenase (Homo sapiens, UniProt P46952).
T3 sequence (P46952 whole entry): T2 sequence (whole entry)
The data set can be described thus: Inhibition of 3-HAO in human brain homogenates using [1-14C]-3-HANA as substrate assessed as [14C]-QUIN production after 1 hr by liquid scintillation spectrometric analysis. In kind it is tissue-based.

Data set [10] has as its target T4, 3-hydroxyanthranilate 3,4-dioxygenase (Rattus norvegicus, UniProt P46953).
T4 sequence (P46953 whole entry): T1 sequence (whole entry)
Nature of the data set: Inhibition of 3-HAO in Sprague-Dawley rat brain homogenates using [1-14C]-3-HANA as substrate assessed as [14C]-QUIN production after 1 hr by liquid scintillation spectrometric analysis. It is filed as tissue-based.

Data set [11] can be described thus: Chemical stability in PBS buffer assessed as auto-oxidative degradation after 24 hrs by HPLC analysis. It is filed as physicochemical. The note with it: read-out: Drug degradation.

Molecules are shown by their SMILES.

Consider `Nc1c(C(=O)O)ccc(Cl)[n+]1[O-]`, for which the inhibition (as a rule, the drop in the measured response relative to a control, in per cent) was determined as 67.3% in data set [1]; 95.2% in data set [2]; 89.6% in data set [3]; 72.9% in [4]; 95.2% in [5]; 84% in [6].

Turning to `Cc1ccc(C#N)c(N)[n+]1[O-]`, the inhibition in [1] is -2.4%; in [2], 5.6%; in data set [3] it was -0.5%; in data set [4] it was -2.9%; in data set [5] it was 2.4%; in data set [6] it was -0.6%.

As for `Nc1c(C(=O)O)cc(Cl)c[n+]1[O-]`, the inhibition in data set [1] was found to be 9.1%; in data set [2] it was 85.9%; in [3] it was 68.6%; in data set [4], 24.8%; in [5] it was 74.4%; in data set [6] it was 42.6%.

In the case of `Nc1c(C(=O)O)cc(Br)c[n+]1[O-]`, the inhibition in [1] was 14.5%; in [2], 89.1%; in [3] it was 67.2%; in data set [4] it was 22.9%; in [5], 83.7%; in [6] it was 55.2%.

For the compound `CCc1ccc(C(=O)O)c(N)[n+]1[O-]`, the inhibition in data set [1] was determined as 69.9%; in data set [2], 90.4%; in data set [3] it was 88.4%; in data set [4] it was 76.6%; in data set [5], 94.2%; in data set [6], 90.7%.

Consider `CCc1cc(C)[n+]([O-])c(N)c1C(=O)O`, for which the inhibition came out at 2.8% in data set [1]; 20% in data set [2]; 10.9% in [3]; 8.5% in [4]; 23% in data set [5]; 3.1% in data set [6].

`Cc1ccc(C(=O)O)c(N)n1`: the inhibition in data set [1] is -2.1%; in data set [2] it was 24.8%; in data set [3], 0.7%; in data set [4] it was -3.6%; in data set [5], 42.5%; in [6], 5.1%.

For `Nc1c(C(=O)O)ccc[n+]1[O-]`, the inhibition in [1] is 47.6%; in data set [2] it was 94%; in [3] it was 88.8%; in [4] it was 74%; in data set [5] it was 92.4%; in data set [6], 84.9%. For the same compound, the remaining at 24 h, 100 µM in data set [7] came out at 103%. Also, the remaining at 24 h, 10 µM in data set [8] came out at 101%.

For the compound `Cc1cc(C(=O)O)c(N)[n+]([O-])c1`, the inhibition in [1] was 8.7%; in data set [2] it was 80.1%; in data set [3], 52.6%; in data set [4] it was 16.3%; in [5], 67.6%; in data set [6], 30.7%.

On to `O=c1[nH]cnc2c1ccc[n+]2[O-]`, for which the inhibition came to 0.6% in [1]; 44.3% in data set [2]; 13% in [3]; 5.5% in data set [4]; 46.9% in data set [5]; 6.4% in [6].

Take `Cc1ccc(C(=O)O)c(N)[n+]1[O-]`: the inhibition turned out to be 76.9% in data set [1]; 94.4% in data set [2]; 92.3% in data set [3]; 85.5% in data set [4]; 96% in [5]; 94.1% in data set [6]. Also, the remaining at 24 h, 100 µM in data set [7] was determined as 102%. Also, the “[3H]-QUIN formed” value in the data set with Rattus norvegicus was 0.9%. Besides, the results for the IC50 in data set [9] and in [10] were 1100 nM and 2800 nM, respectively. The remaining at 24 h, 10 µM in [8] was found to be 101%.

Consider `Cc1cc(C(C)C)c(C(=O)O)c(N)[n+]1[O-]`, for which the inhibition in [1] is 1.1%; in data set [2], 24.1%; in [3] it was 10.2%; in [4], 4%; in [5], 25.7%; in data set [6], 2.2%.

For the compound `Cc1cc(C)[n+]([O-])c(N)c1C(=O)O`, the inhibition in [1] was -0.8%; in [2], 69.5%; in [3] it was 16.3%; in data set [4] it was 0.7%; in data set [5] it was 46.6%; in [6], 4.3%.

`Cc1ccc(C(N)=O)c(N)[n+]1[O-]`: the inhibition in data set [1] was -1.1%; in [2], 20.1%; in data set [3], 1.3%; in data set [4] it was 1.7%; in data set [5] it was 11.5%; in data set [6], -2%.

For the compound `Nc1c(C(=O)O)ccc(Cl)c1O`, the degraded at 24 h in data set [11] amounted to 62%.

Consider `O=C(O)c1ccc(Cl)[n+]([O-])c1`, for which the inhibition was 2.9% in [1]; 30.4% in data set [2]; -3% in data set [3]; -5.4% in data set [4]; 37% in data set [5]; 11.4% in data set [6].

As to `COC(=O)c1ccc(C)[n+]([O-])c1N`, the inhibition was 1% in data set [1]; 6% in data set [2]; -5.8% in [3]; -7.9% in data set [4]; 9.3% in [5]; 1.2% in data set [6].

As for `Cc1cc(-c2ccccc2)c(C(=O)O)c(N)[n+]1[O-]`, the inhibition was 2.4% in [1]; 7.4% in [2]; 4.1% in [3]; -2.8% in data set [4]; 14.8% in data set [5]; 5.5% in data set [6].

`Cc1cc(C(=O)O)c(N)[n+]([O-])c1C`: the inhibition in data set [1] was 17.6%; in data set [2], 89.1%; in data set [3] it was 76.3%; in [4], 31.3%; in data set [5], 85.8%; in data set [6], 61.6%.

For `CC(C)c1cc(C(C)C)[n+]([O-])c(N)c1C(=O)O`, the inhibition was 1.2% in data set [1]; 10.6% in data set [2]; 1.5% in data set [3]; -5.4% in data set [4]; 14.6% in [5]; 2.9% in data set [6].
